Assay results reported in PubChem BioAssay (NCI).
Where “and” joins values, the source holds several entries; their conditions need not be identical. Identical values can stand only once.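 Assay format: 96-well plates, 48-hour exposure. GI50 = concentration required for 50% inhibition of growth. Definition used: TGI = concentration required for complete inhibition of growth.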

How the values were obtained:
Assay in all cases: NCI anticancer screen, dose series, 48 h
HCT-15 colon = system: HCT-15 colon
786-0 renal = system: 786-0 renal
SF-295 CNS = system: SF-295 CNS
A498 renal = system: A498 renal
BT-549 breast = system: BT-549 breast
SK-OV-3 ovarian = system: SK-OV-3 ovarian
SR leukemia = system: SR leukemia
UO-31 renal = system: UO-31 renal
MALME-3M melanoma = system: MALME-3M melanoma
MCF7 breast = system: MCF7 breast

Structure (SMILES) | TGI (HCT-15 colon) [µM] | TGI (786-0 renal) | TGI (SF-295 CNS) | TGI (A498 renal) [µM] | TGI (BT-549 breast) [µM] | TGI (SK-OV-3 ovarian) [µM] | TGI (SR leukemia) [µM] | TGI (UO-31 renal) | TGI (MALME-3M melanoma) | TGI (MCF7 breast) | GI50 (HCT-15 colon) [µM] | GI50 (786-0 renal) [µM] | GI50 (SF-295 CNS) [µM] | GI50 (A498 renal) [µM] | GI50 (BT-549 breast) [µM] | GI50 (SK-OV-3 ovarian) [µM] | GI50 (SR leukemia) [µM] | GI50 (UO-31 renal) [µM] | GI50 (MALME-3M melanoma) [µM] | GI50 (MCF7 breast) [µM]
C[C@H]1/C(=C/C(=O)OCCN(C)C)CC[C@H]2[C@H]1C(=O)C[C@H]1C(C)(C)[C@@H](O)CC[C@]21C | > 100 | > 100 µM | > 100 µM | > 100 | > 100 | > 100 | > 100 | > 100 µM | > 100 µM | > 100 µM | – | – | – | – | – | – | – | – | – | –
C=C1CC2(CC(c3ccccc3Cl)OC(c3ccccc3Cl)C2)OC1=O (stereo unspecified) | 5.58 | 4.66 µM | 19.2 µM | 21.3 | 4.59 | 16.9 | 14.2 | 11.7 µM | 8.19 µM | 5 µM | – | – | – | – | – | – | – | – | – | –
O=C1/C=C/[C@@H](O)[C@@H]2C[C@@H](O)C[C@H]2/C=C/CCC[C@H](CCc2cccc3ccccc23)O1 | 10.5 | 0.0372 µM | 10.1 µM | 0.815 | 12.1 | 12 | 1.33 | 12.3 µM | 0.245 µM | 0.377 µM | 0.326 | 0.02 | 0.0388 | 0.0185 | 0.0609 | 0.064 | 0.0353 | 0.046 | 0.036 | 0.0753
CO[C@H]1C=CO[C@@]2(C)Oc3c(C)c(O)c4c(O)c(c(CN5CCN(C)CC5)c(O)c4c3C2=O)NC(=O)/C(C)=C\C=C[C@H](C)[C@H](O)C(C)[C@@H](O)C(C)[C@H](OC(C)=O)[C@@H]1C (stereo partly specified) | > 100 | > 100 µM | > 100 µM | > 100 | > 100 | > 100 | 35.5 | > 94.4 µM | > 100 µM | 33.7 µM | – | – | – | – | – | – | – | – | – | –
Cn1c(=O)c(Oc2ccc(F)cc2F)cc2cnc(NC(C)(C)CO)nc21 | > 25 | > 25 µM | > 25 µM | > 25 | > 25 | > 25 | > 25 | > 13.4 µM | > 25 µM | > 25 µM | > 25 | > 25 | > 25 | > 15.9 | > 21.4 | > 25 | > 25 | 6.65 | > 25 | > 25
CCN(CC)CCCC(C)Nc1ccnc2cc(Cl)ccc12 (stereo unspecified) | > 100 | > 100 µM and 23.9 µM | 59.9 µM and > 60.1 µM | > 100 | > 100 | > 100 | 66.2 | > 100 µM and 46.4 µM | 48.7 µM and 35.7 µM | > 100 µM and 42.3 µM | 57.9 | 67.2 | – | > 100 | 55.9 | > 100 | – | 84.8 | – | 63.9
O=C(Nc1ccc(Cc2ccccc2)cc1)Nc1nn(C(=O)Nc2ccc(Cc3ccccc3)cc2)c2ccccc12 | > 100 | > 100 µM | > 100 µM | > 100 | > 100 | > 100 | 35.8 | > 100 µM | > 100 µM | > 100 µM | > 100 | > 100 | > 100 | 82.4 | > 100 | > 100 | 16.3 | > 100 | > 100 | > 100
CN(C)CCCN(CCC1CCCCC1)CCC1CCCCC1 | 3.59 | 9.16 µM | 4.51 µM | 9.61 | 22.2 | 21.5 | 3.25 | 4.24 µM | 3.77 µM | 2.62 µM | 1.46 | 2.74 | 1.95 | 2.87 | 7.74 | 7.68 | 0.731 | 1.38 | 1.83 | 1.32
CSc1c(C2=C(c3cn(C)c4ccccc34)C(=O)NC2=O)c2ccccc2n1C | > 25 | > 25 µM | > 25 µM | 2.11 | 11.5 | > 25 | 1.88 | > 19.4 µM | > 25 µM | > 25 µM | 0.755 | 1.19 | 0.671 | 0.376 | 0.747 | 0.833 | 0.128 | 0.703 | 1.21 | 0.805
O=C(/C=C/c1ccc(Cl)cc1)c1ccccc(=O)c1O | 6.08 | 32.1 µM | 16.3 µM | 36 | 13.5 | 16.6 | > 100 | > 100 µM | 5.22 µM | 19.8 µM | – | – | – | – | – | – | – | – | – | –
C=C(CN1CCN(c2ccc(C(F)(F)F)cc2)CC1)c1ccc(C(=O)Nc2ccccc2N)cc1 | > 100 | > 100 µM | > 100 µM | 61.5 | 97.8 | > 100 | > 100 | > 73.1 µM | > 100 µM | > 100 µM | > 100 | 2.85 | 10.8 | 7.67 | 6.93 | 12.1 | 1.1 | 0.967 | 19.3 | 10.9
CCCc1n(Cc2ccc3ccccc3c2)cc[n+]1Cc1ccc2ccccc2c1 | 16.1 | 2.91 µM | 3.34 µM | 3.78 | 2.16 | 4.95 | 2.62 | 11.6 µM | 2.58 µM | 2.77 µM | 3.69 | 1.52 | 1.44 | 0.938 | 0.772 | 1.74 | 0.597 | 2.56 | 0.876 | 1.11
CC(=O)OC1CCC2(C)C(CCC3C2CC(=O)C2(C)C3CC(N3CC3)C2C(C)=O)C1 (stereo unspecified) | 70.6 | 64.4 µM | 51 µM | 53.9 | 40.1 | – | 64.7 | 46.4 µM | 36.5 µM | 47.1 µM | – | – | – | – | – | – | – | – | – | –
CC/C=C\C[C@H](F)C/C=C1/C(=O)C=C[C@@H]1C/C=C\CCCC(=O)OC | 4.42 | 9.55 µM | 8.3 µM | 17.2 | 4.15 | 32.1 | 3.42 | 9.72 µM | 8.7 µM | 7.05 µM | 1.19 | 2.56 | 2.24 | 9.41 | 1.5 | 10.5 | 1.06 | 2.13 | 2.03 | 1.02
